Reference: PubChem BioAssay (NCI)
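How tested: cells in 96-well plates exposed to compound for 48 hours at five concentrations. GI50: concentration for 50% inhibition of growth. TGI: total growth inhibition.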

Test system: MDA-MB-468 breast
Test: NCI tumour cell line growth inhibition, 48 h

Row | SMILES | GI50 [nM] | TGI [nM]
1 | C#Cc1nc2ccccc2c(=O)[nH]1 | 199 | 486
2 | CCN(c1cc(-c2ccc(CN3CCOCC3)cc2)cc(C(=O)NCc2c(C)cc(C)[nH]c2=O)c1C)C1CCOCC1 | 13400 | 30400
3 | COc1ccc(-c2nc(-c3nc4ccc(F)cc4[nH]3)c3ccccn23)cc1 | 4120 | 57100
4 | CSCCCNC(=O)c1ccc2c(c1)/C(=C/c1[nH]c(C)cc1C)C(=O)N2 | 481 | > 100000
5 | c1ccc(-c2nc(N3CCOCC3)c3c4c(sc3n2)CCCCCC4)nc1 | 4120 | 19000
6 | c1ccc2c(-c3nc(-c4c[nH]c5ccncc45)cs3)c[nH]c2c1 | 226 | 1510
7 | NCCOCCOCCNc1nc(-c2ccc(Cl)cc2)nc(N2CCN(c3ccccn3)CC2)n1 | 1950 | 3990
8 | COc1cc(C)c(C2NC(=O)c3ccccc3N2)cc1C (stereo unspecified) | 754 | > 100000
9 | Cc1nc2c(n1C)C(=O)c1ccccc1C2=O | 25100 | > 100000
10 | C=CC(=O)Nc1cc(N2CCN(CC)CC2)ccc1Nc1cc(N(C)C(=O)Nc2c(Cl)c(OC)cc(OC)c2Cl)ncn1 | 1680 | 4160
11 | O=P1(S)OC[C@H]2O[C@@H]3[C@H](F)[C@@H]2OP(O)(=S)OC[C@H]2O[C@H]([C@H](F)[C@@H]2O1)n1cnc2c(ncnc21)NC/C=C/CNc1ncnc2c1ncn23 (stereo partly specified) | 11500 | > 100000
12 | Cc1nc2ccc(NC(=O)CCNC(=O)CCCc3ccc(CC(C(=O)O)C(=O)O)cc3)cc2s1 | > 100000 | > 100000
13 | COc1cnc2c(c1)C(=O)c1c-2n(CCCNCCO)c(=O)c2ccncc12 | 283 | 1650
14 | C1=C2CCCC3=Cc4ccccc4OC23Oc2ccccc21 | 5420 | 69100
15 | COc1ccc2[nH]c(O)c(/C=c3/cc4c(c(-c5ccc(F)c(OC)c5)n3)=Nc3ccccc3-4)c2c1 | 1430 | 2940
16 | Cc1nn2c(/C=C3/C(=O)Nc4cc(Cl)ccc43)c(-c3ccccc3)nc2s1 | 27700 | > 100000
17 | Cn1cc(-c2ccc3nnc(Sc4ccc5ncccc5c4)n3n2)cn1 | 16400 | > 91400
18 | COc1ccc(C(=O)NNc2nc(Cl)nc(N3CCN(C(c4ccccc4)c4ccccc4)CC3)n2)cc1 | 2500 | 47500
19 | CS(=O)(=O)Nc1cc(-c2ccc3ncc(C#N)c(NCc4ccccc4O)c3c2)cnc1Cl | 173 | 1680

Row | SMILES | GI50 [nM] | TGI [nM]
20 | C=C1CCC2(C#N)[C@H]3[C@H](CC[C@@H]2C)[C@@H](C)C[C@@H](CC(C)(C)NC(=O)CN2CCC2=O)[C@H]13 (stereo partly specified) | 3220 | 22900
21 | OCc1ccc(-c2cscc2-c2ccc(CO)o2)o1 | 74 | 281
22 | COc1ccc(C(O)c2cc3c(N)c(C(=O)Nc4cccc(Cl)c4)sc3nc2C)cc1 (stereo unspecified) | 286 | 28400
23 | O=C(Nc1ccc(-c2nc(-c3cccc(OCCN4CCOCC4)c3)c(-c3ccnc(Br)c3)[nH]2)cc1)c1ccccc1 | 1770 | 5700
24 | O=c1[nH]c2nc(NC3CCOCC3)ncc2cc1Oc1ccc(F)cc1F | > 25000 | > 25000
25 | COc1cc(NC(=O)CCSc2nc3ccc(C)cc3c(=O)n2Cc2ccccc2)cc(OC)c1OC | 5390 | > 100000
26 | Cc1nc(Nc2cccnc2)sc1C(=O)/C=C/c1ccc(Cl)cc1 | 2890 | 8480
27 | Cc1cc(O)c(C2=NN(c3ccc(S(N)(=O)=O)cc3)C(c3ccc(Cl)cc3)C2)c(C)c1Cl (stereo unspecified) | 10700 | 24600
28 | COc1cc2c(cc1OC)C(=O)/C(=C/c1cc(-c3ccc4c(c3)OCO4)n[nH]1)C2 | 1070 | 2410
29 | O=C(Oc1ccc(CO[N+](=O)[O-])cc1)c1ccccc1 | 146 | 332
30 | O=c1cc(N/N=C/c2ccc(F)cc2)c2cc(Cl)ccc2[nH]1 | 13300 | 49100
31 | O=C1CCC(N2C(=O)c3ccccc3C2=O)C(=O)N1 (stereo unspecified) | > 100000 | > 100000
32 | Cn1cc(C2=C(c3cn(C)c4ccc(Cl)cc34)C(=O)NC2=O)c2ccccc21 | 2860 | 22000
33 | O=C(NCCc1ccccn1)OCc1nc2nc(Cl)nc(N3CCOCC3)c2[nH]1 | 1350 | 2880
34 | O=C([O][Sn]([O]C(=O)c1ccccn1)([c]1ccccc1)[c]1ccccc1)c1ccccn1 | 1450 | 2760
35 | Cc1nc(Nc2ccccn2)sc1C(=O)/C=C/c1ccc(Cl)cc1 | 395 | 5700
36 | CCN=C1C=CC(=C(c2ccc(N(CC)CC)cc2)c2ccc(N(CC)CC)cc2)c2ccccc21 | 30.2 | 228
37 | Cc1ccc(S(=O)(=O)c2nc(-c3ccccc3)oc2S(C)=O)cc1 (stereo unspecified) | 520 | 2150
38 | Cc1c2cc(Cl)c3ccccc3c2c[n+]2ccccc12 | 165 | 570
